# Laboratory results: ChEMBL document CHEMBL4699511, “Cedrol, a Sesquiterpene Alcohol, Enhances the Anticancer Efficacy of Temozolomide in Attenuating Drug Resistance via Regulation of the DNA Damage Response and MGMT Expression” (J Nat Prod, 2020)
# The source made the active and inactive calls. No cut-off for these calls is given here.
# What was measured:
# DBTRG-05MG [1] = assay: Cytotoxicity against human DBTRG-05MG cells assessed as reduction in cell viability after 72 hrs by MTT assay; type: functional, cell-based
# RG2 [2] = assay: Cytotoxicity against rat RG2 cells assessed as reduction in cell viability after 48 hrs by MTT assay; type: functional, cell-based; details: for IC50: RG2, 48 h
# RG2 [3] = assay: Induction of cell cycle arrest in rat RG2 cells assessed as accumulation at G2/M phase at 112.4 uM after 48 hrs in presence of TMZ by propidium iodide staining based flow cytometric analysis (reference value: 20.04 +/- 0.55%); type: functional
# [4] = Synergistic cytotoxicity against rat CTX TNA2 cells assessed as synergistic effect index at 112.4 uM after 48 hrs in presence of 103 uM TMZ by MTT assay; type: cell-based; details: ctx tna2, 48 h
# RG2 [5] = assay: Induction of cell cycle arrest in rat RG2 cells assessed as accumulation at G2/M phase at 112.4 uM after 12 hrs by propidium iodide staining based flow cytometric analysis (reference value: 20.04 +/- 0.55%); type: functional
# [6] = Effect on AKT expression in rat RG2 cells at 112.4uM after 48 hrs by Western blot analysis (reference value: 1); type: functional
# [7] = Cytotoxicity against rat CTX TNA2 cells assessed as reduction in cell viability after 72 hrs by MTT assay; type: cell-based; details: CTX TNA2, 72 h
# DBTRG-05MG [8] = assay: Synergistic cytotoxicity against human DBTRG-05MG cells assessed as combination index at 134.9 uM after 48 hrs in presence of 515.1 uM TMZ by MTT assay; type: functional
# DBTRG-05MG [9] = assay: Induction of apoptosis in human DBTRG-05MG cells assessed as increase in chromatin condensation at 112.4 uM after 48 hrs by TUNEL assay; type: functional, cell-based
# DBTRG-05MG [10] = assay: Induction of cell cycle arrest in human DBTRG-05MG cells assessed as accumulation at G0/G1 phase at 112.4 uM after 24 hrs by propidium iodide staining based flow cytometric analysis (reference value: 47.16 +/- 1.55%); type: functional
# DBTRG-05MG [11] = assay: Cytotoxicity against human DBTRG-05MG cells assessed as reduction in cell viability after 24 hrs by MTT assay; type: functional, cell-based
# [12] = Cytotoxicity against rat CTX TNA2 cells assessed as reduction in cell viability after 48 hrs by MTT assay; type: cell-based; details: CTX TNA2, 48 h
# DBTRG-05MG [13] = assay: Induction of cell cycle arrest in human DBTRG-05MG cells assessed as accumulation at G2/M phase at 112.4 uM after 24 hrs by propidium iodide staining based flow cytometric analysis (reference value: 30.08 +/- 0.1%); type: functional
# DBTRG-05MG [14] = assay: Induction of cell cycle arrest in human DBTRG-05MG cells assessed as accumulation at G0/G1 phase at 112.4 uM after 24 hrs in presence of TMZ by propidium iodide staining based flow cytometric analysis (reference value: 47.16 +/- 1.55%); type: functional
# RG2 [15] = assay: Induction of apoptosis in rat RG2 cells assessed as increase in chromatin condensation at 112.4 uM after 48 hrs in presence of TMZ by TUNEL assay; type: functional, cell-based
# DBTRG-05MG [16] = assay: Induction of cell cycle arrest in human DBTRG-05MG cells assessed as p53 expression at 112.4 uM after 48 hrs in presence of TMZ by Western blot analysis (reference value: 1); type: functional
# [17] = Cytotoxicity against rat CTX TNA2 cells assessed as reduction in cell viability after 24 hrs by MTT assay; type: cell-based; details: CTX TNA2, 24 h
# DBTRG-05MG [18] = assay: Induction of apoptosis in human DBTRG-05MG cells assessed as phosphorylated PARP expression at 112.4 uM after 48 hrs by Western blot analysis (reference value: 1); type: functional
# RG2 [19] = assay: Synergistic cytotoxicity against rat RG2 cells assessed as synergistic effect index at 134.9 uM after 48 hrs in presence of 103 uM TMZ by MTT assay; type: functional
# RG2 [20] = assay: Cytotoxicity against rat RG2 cells assessed as reduction in cell viability after 72 hrs by MTT assay; type: functional, cell-based; details: for IC50: RG2, 72 h
# [21] = Effect on JNK expression in rat RG2 cells at 112.4uM after 48 hrs in presence of TMZ by Western blot analysis (reference value: 1); type: functional
# [22] = Synergistic cytotoxicity against rat CTX TNA2 cells assessed as combination index at 112.4 uM after 48 hrs in presence of 515.1 uM TMZ by MTT assay; type: cell-based; details: ctx tna2, 48 h
# DBTRG-05MG [23] = assay: Cytotoxicity against human DBTRG-05MG cells assessed as reduction in cell viability after 48 hrs by MTT assay; type: functional, cell-based
# DBTRG-05MG [24] = assay: Induction of cell cycle arrest in human DBTRG-05MG cells assessed as p53 expression at 112.4 uM after 48 hrs by Western blot analysis (reference value: 1); type: functional
# RG2 [25] = assay: Synergistic cytotoxicity against rat RG2 cells assessed as combination index at 89.9 uM after 48 hrs in presence of 103 uM TMZ by MTT assay; type: functional
# [26] = Synergistic cytotoxicity against rat CTX TNA2 cells assessed as synergistic effect index at 134.9 uM after 48 hrs in presence of 309 uM TMZ by MTT assay; type: cell-based; details: ctx tna2, 48 h
# RG2 [27] = assay: Induction of cell cycle arrest in rat RG2 cells assessed as CDK2 expression at 112.4uM after 48 hrs in presence of TMZ by Western blot analysis (reference value: 1); type: functional
# RG2 [28] = assay: Inhibition of JNK phosphorylation at Thr183/Tyr185 residues in rat RG2 cells at 112.4uM after 48 hrs in presence of TMZ by Western blot analysis (reference value: 1); type: cell-based
# DBTRG-05MG [29] = assay: Synergistic cytotoxicity against human DBTRG-05MG cells assessed as combination index at 89.9 uM after 48 hrs in presence of 515.1 uM TMZ by MTT assay; type: functional
# RG2 [30] = assay: Cytotoxicity against rat RG2 cells assessed as reduction in cell viability after 24 hrs by MTT assay; type: functional, cell-based; details: for IC50: RG2, 24 h
# [31] = Synergistic cytotoxicity against rat CTX TNA2 cells assessed as synergistic effect index at 134.9 uM after 48 hrs in presence of 515.1 uM TMZ by MTT assay; type: cell-based; details: ctx tna2, 48 h
# DBTRG-05MG [32] = assay: Induction of cell cycle arrest in human DBTRG-05MG cells assessed as accumulation at S phase at 206 uM after 6 hrs by propidium iodide staining based flow cytometric analysis (reference value: 22.76 +/- 1.56%); type: functional
# RG2 [33] = assay: Induction of cell cycle arrest in rat RG2 cells assessed as accumulation at S phase at 206 uM after 12 hrs by propidium iodide staining based flow cytometric analysis (reference value: 20.15 +/- 2.44%); type: functional
# RG2 [34] = assay: Induction of cell cycle arrest in rat RG2 cells assessed as accumulation at G0/G1 phase at 206 uM after 48 hrs by propidium iodide staining based flow cytometric analysis (reference value: 57.81 +/- 1.9%); type: functional
# RG2 [35] = assay: Induction of cell cycle arrest in rat RG2 cells assessed as accumulation at S phase at 206 uM after 24 hrs by propidium iodide staining based flow cytometric analysis (reference value: 20.15 +/- 2.44%); type: functional
structure (smiles),measurement,setting,value
C[C@@H]1CC[C@H]2C(C)(C)[C@H]3C[C@@]12CC[C@@]3(C)O [CEDROL],Activity,DBTRG-05MG [1],Dose-dependent effect
same,IC50,DBTRG-05MG [1],107 µM
same,Activity,RG2 [2],Dose-dependent effect
same,IC50,RG2 [2],93.3 µM
same,Activity,RG2 [3],35.71%
same,Activity_index,[4],0.26
same,Activity,RG2 [5],18.1%
same,fold change (FC),[6],0.6
same,IC50,[7],255 µM
same,CI,DBTRG-05MG [8],0.68
same,Activity,DBTRG-05MG [9],Active
same,Activity,DBTRG-05MG [10],57.59%
same,Activity,DBTRG-05MG [11],Dose-dependent effect
same,IC50,DBTRG-05MG [11],119 µM
same,IC50,[12],280 µM
same,Activity,DBTRG-05MG [13],26.38%
same,Activity,DBTRG-05MG [14],48.93%
same,Activity,RG2 [15],Active
same,fold change (FC),DBTRG-05MG [16],2.2
same,IC50,[17],238 µM
same,fold change (FC),DBTRG-05MG [18],0.7
same,Activity_index,RG2 [19],0.9
same,Activity,RG2 [20],Dose-dependent effect
same,IC50,RG2 [20],89.2 µM
same,fold change (FC),[21],0.5
same,CI,[22],0.87
same,Activity,DBTRG-05MG [23],Dose-dependent effect
same,IC50,DBTRG-05MG [23],102 µM
same,fold change (FC),DBTRG-05MG [24],0.9
same,CI,RG2 [25],0.88
same,Activity_index,[26],0.52
same,fold change (FC),RG2 [27],0.4
same,fold change (FC),RG2 [28],0.6
same,CI,DBTRG-05MG [29],0.81
same,Activity,RG2 [30],Dose-dependent effect
same,IC50,RG2 [30],107 µM
same,Activity_index,[31],0.7
Cn1nnc2c(C(N)=O)ncn2c1=O [TEMOZOLOMIDE],IC50,DBTRG-05MG [1],119 µM
same,IC50,RG2 [2],348 µM
same,IC50,[7],431 µM
same,IC50,DBTRG-05MG [11],974 µM
same,IC50,[12],487 µM
same,IC50,[17],666 µM
same,Activity,DBTRG-05MG [32],24.76%
same,Activity,RG2 [33],22.12%
same,IC50,RG2 [20],107 µM
same,IC50,DBTRG-05MG [23],355 µM
same,Activity,RG2 [34],26.97%
same,IC50,RG2 [30],962 µM
same,Activity,RG2 [35],15.48%
